Reference: article PMC10003956, “To the Understanding of Catalysis by D-Amino Acid Transaminases: A Case Study of the Enzyme from Aminobacterium colombiense” (Molecules, 2023)

How the values were obtained:
AmicoTA [1] = target: T1, AmicoTA (Aminobacterium colombiense, UniProt D5EHC5); test: half-reaction of PLP form, absorbance at […] nm; type: binding
T1 construct: gene Amico_1844; N-terminal His6-TEV tag kept for kinetics, cut for crystals; E. coli Rosetta (DE3) pLysS

AmicoTA [2] = target: T1, AmicoTA; test: X-ray crystal structure, […] Å; type: binding; conditions: covalent, Schiff base with K142; tag-free protein

T1 sequence (D5EHC5 entry or part of it): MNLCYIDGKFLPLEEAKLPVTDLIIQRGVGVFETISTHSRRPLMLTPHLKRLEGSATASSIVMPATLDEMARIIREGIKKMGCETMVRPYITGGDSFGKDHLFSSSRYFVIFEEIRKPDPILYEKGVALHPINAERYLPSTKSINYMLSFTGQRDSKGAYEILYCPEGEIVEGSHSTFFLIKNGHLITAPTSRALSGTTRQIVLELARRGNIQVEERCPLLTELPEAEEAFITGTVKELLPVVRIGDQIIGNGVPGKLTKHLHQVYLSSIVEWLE

| SMILES | Kd (AmicoTA [1]) [mM] | X-ray crystal structure, 1.9 Å (AmicoTA [2]) |
| --- | --- | --- |
| N[C@H](CCC(=O)O)C(=O)O [D-glutamate] | 2.1 ± 0.2 |  |
| Cc1ncc(COP(=O)(O)O)c(C=O)c1O [PLP] |  | bound via Schiff base linkage with K142 |
| CC(C)C[C@@H](N)C(=O)O [D-leucine] | 100 ± 10 |  |

Continued by falling Kd (AmicoTA [1]), values first:

| Kd (AmicoTA [1]) [mM] | X-ray crystal structure, 1.9 Å (AmicoTA [2]) | SMILES |
| --- | --- | --- |
| 50 ± 6 |  | C[C@@H](N)C(=O)O [D-alanine] |
| 19 ± 3 |  | N[C@H](Cc1ccccc1)C(=O)O [D-phenylalanine] |
